Data on eight compounds can be found in US20220267352A1, “RAPAMYCIN ANALOGS AND USES THEREOF” (Anakuria Therapeutics, Inc., priority 2021, published 2022).

What all share (type): cell-based
The test system of assay [1] is p-Akt 1/2/3 (Ser473) in MCF-7 cells. Nature of the assay: AlphaLISA Ultra pAKT assay. Conditions: Homo sapiens, 1.5 h; MCF7 cells, 90 min. How it is done: Example 56: AlphaLISA Ultra pAKT Assay
Assay Protocol: • 1. MCF-7 cells in Corning 3701 plate and incubate for 20˜24 hour. 16,000˜20,000 cells will be seeded in 36 μL medium per well. • 2. Change the culture medium with fresh medium and incubate for another 90 minutes. • 3. Add 12 μL (4×) compounds into the cell plate by HAMILTON. Final DMSO concentration is 0.5%. […] Aspirate 38 μL by HAMILTON, 10 μL rest per well. • 5. Add 10 μL 2× lysis buffer using HAMILTON; total volume in wells is 20 μL. Allow cells to shake for 30 min. Cover plate by plastic foil and store plate at −80° C. up to analysis. • 6. Thaw cell lysate at RT and transfer 10 μL lysate to assay plate (Optiplate-384). • 7. Add 5 μL acceptor beads into assay plate and incubation for 2 hours • 8. Add 5 μL donor beads and incubation for 2 hours • 9. Count the plate by EnSpire Multimode Plate Reader
For orientation: Bead proximity is the source of the signal in Alpha formats.

The next assay deals with mTORC1 over mTORC2. In words: mTORC1 over mTORC2 selectivity by comparing pS6K1 and pAKT IC50. Conditions: by comparing pS6K1 and pAKT IC50, 90 min. How it is done:
Assay Protocol: • 1. Seed MCF-7 cells in Corning 3701 plate and incubate for 20˜24 hour. 12,000˜16,000 cells will be seeded in 36 μL medium per well. • 2. Change the culture medium with fresh medium and incubate for another 2 hours. • 3. Add 12 μL (4×) compounds into the cell plate by HAMILTON. Final DMSO concentration is 0.5%. Incubate for 90 minutes. • 4. Aspirate 38 μL by HAMILTON, 10 μL rest per well. • 5. Add 10 μL 2× lysis buffer using HAMILTON; total volume in wells is 20 μL. Allow cells to shake for 30 min. Cover plate by plastic foil and store plate at −80° C. up to analysis. • 6. Thaw cell lysate at RT and transfer 10 μL lysate to assay plate (Optiplate-384). • 7. Add 5 μL acceptor beads into assay plate and incubation for 2 hours • 8. Add 5 μL donor beads and incubation for 2 hours • 9. Count the plate by EnSpire Multimode Plate Reader […]
Compounds that are not selective by comparing pS6K1 and pAKT IC50 by kinase assays are indicated by “NO” in the “mTORC1 selective @ 90 min” column of Table 4. […] Compounds that are not selective at the 24 hrs mark are indicated by “NO” in the “mTORC1 selective @ 24 hrs” column of Table 4. “N/A” stands for “not assayed” and “N/C” stands for “not calculated”.

In assay [2] the test system is p-p70 S6 Kinase (Thr389) in MCF-7 cells. In words: AlphaLISA Ultra pS6K1 assay. Particulars: Homo sapiens, 1.5 h; MCF7 cells, 90 min. How it is done: Example 55: AlphaLISA Ultra pS6K1 Assay
Assay Protocol: • 1. Seed MCF-7 cells in Corning 3701 plate and incubate for 20˜24 hour. 12,000˜16,000 cells will be seeded in 36 μL medium per well. • 2. Change the culture medium with fresh medium and incubate for another 2 hours. • 3. Add 12 μL (4×) compounds into the cell plate by HAMILTON. Final DMSO concentration is 0.5%. Incubate for 90 minutes. • 4. Aspirate 38 μL by HAMILTON, 10 μL rest per well. • 5. Add 10 μL 2× lysis buffer using HAMILTON; total volume in wells is 20 μL. Allow cells to shake for 30 min. Cover plate by plastic foil and store plate at −80° C. up to analysis. • 6. Thaw cell lysate at RT and transfer 10 μL lysate to assay plate (Optiplate-384). • 7. Add 5 μL acceptor beads into assay plate and incubation for 2 hours • 8. Add 5 μL donor beads and incubation for 2 hours • 9. Count the plate by EnSpire Multimode Plate Reader

The IC50 is the concentration that inhibits the measured activity by half. Higher therefore signals a need for much substance. As to `CO[C@@H]1C[C@H](C[C@@H](C)[C@@H]2CC(=O)[C@H](C)/C=C(\C)[C@@H](O)[C@@H](OC)C(=O)[C@H](C)C[C@H](C)/C=C/C=C/C=C(\C)[C@H](OCCOC3COC3)C[C@@H]3CC[C@@H](C)[C@@](O)(O3)C(=O)C(=O)N3CCCC[C@H]3C(=O)O2)CC[C@H]1OCCCN1C[C@@H](C)O[C@@H](C)C1` [I-100, (27E,29E,31E,32E,39R,40S,41R,44R,46S,48S,50R,51S,53R,54R,63R)-51-[(1R)-2-[(1S,3R,4R)-4-[3-[(2S,6R)-2,6-dimethylmorpholin-4-yl]propoxy]-3-methoxy-cyclohexyl]-1-methyl-ethyl]-53,63-dihydroxy-54-methoxy-39,40,41,44,55,56-hexamethyl-50-[2-(oxetan-3-yloxy)ethoxy]-75,76-dioxa-64-azatricyclohexatriaconta-27,29,31(55),32(56)-tetraene-57,58,59,60,61-pentone], the IC50 was at least 1000 nM in assay [1] and 1 to 10 nM in assay [2]. Also, the “mTORC1 selective @ 90 min” value in the assay with mTORC1 over mTORC2 is “Yes”.

Consider `CO[C@@H]1C[C@H](C[C@@H](C)[C@@H]2CC(=O)[C@H](C)/C=C(\C)[C@@H](O)[C@@H](OC)C(=O)[C@H](C)C[C@H](C)/C=C/C=C/C=C(\C)[C@H](OCCOC3COC3)C[C@@H]3CC[C@@H](C)[C@@](O)(O3)C(=O)C(=O)N3CCCC[C@H]3C(=O)O2)CC[C@H]1OCCCN1CCOCC1` [I-13, (27E,29E,31E,32E,39R,40S,41R,42R,44S,46S,48R,49S,51R,52R,61R)-51,61-dihydroxy-52-methoxy-49-[(1R)-2-[(1S,3R,4R)-3-methoxy-4-(3-morpholinopropoxy)cyclohexyl]-1-methyl-ethyl]-39,40,41,42,53,54-hexamethyl-48-[2-(oxetan-3-yloxy)ethoxy]-73,74-dioxa-63-azatricyclohexatriaconta-27,29,31(53),32(54)-tetraene-55,56,57,58,59-pentone], for which the figures for the 50% inhibitory concentration (IC50) in assay [1] and in assay [2] were at least 1000 nM and 1 to 10 nM, respectively. Also, the “mTORC1 selective @ 90 min” value with mTORC1 over mTORC2 is “Yes”.

`CO[C@@H]1C[C@H](C[C@@H](C)[C@@H]2CC(=O)[C@H](C)/C=C(\C)[C@@H](O)[C@@H](OC)C(=O)[C@H](C)C[C@H](C)/C=C/C=C/C=C(\C)[C@@H](OCCOC3COC3)C[C@@H]3CC[C@@H](C)[C@@](O)(O3)C(=O)C(=O)N3CCCC[C@H]3C(=O)O2)CC[C@H]1OCCCN1C[C@@H](C)O[C@@H](C)C1` [I-101, (27E,29E,31E,32E,39R,40S,41R,44R,46S,48S,50S,51S,53R,54R,63R)-51-[(1R)-2-[(1S,3R,4R)-4-[3-[(2S,6R)-2,6-dimethylmorpholin-4-yl]propoxy]-3-methoxy-cyclohexyl]-1-methyl-ethyl]-53,63-dihydroxy-54-methoxy-39,40,41,44,55,56-hexamethyl-50-[2-(oxetan-3-yloxy)ethoxy]-75,76-dioxa-64-azatricyclohexatriaconta-27,29,31(55),32(56)-tetraene-57,58,59,60,61-pentone]: the IC50 was at least 1000 nM in assay [1] and 10 to 100 nM in assay [2]. Moreover, the “mTORC1 selective @ 90 min” value in the assay with mTORC1 over mTORC2 is “Yes”.

Turning to `CO[C@@H]1C[C@H](C[C@@H](C)[C@@H]2CC(=O)[C@H](C)/C=C(\C)[C@@H](O)[C@@H](OC)C(=O)[C@H](C)C[C@H](C)/C=C/C=C/C=C(\C)C(OCCOC3COC3)C[C@@H]3CC[C@@H](C)[C@@](O)(O3)C(=O)C(=O)N3CCCC[C@H]3C(=O)O2)CC[C@H]1OC(=O)NCCN1CCOCC1` (stereo partly drawn) [I-19, [(42S,44R,46R)-4-[(2R)-2-[(27E,29E,31E,32E,38R,39S,40R,41R,43S,45S,48S,50R,51R,61R)-50,61-dihydroxy-51-methoxy-38,39,40,41,52,53-hexamethyl-47-[2-(oxetan-3-yloxy)ethoxy]-54,55,56,57,58-pentaoxo-75,76-dioxa-64-azatricyclohexatriaconta-27,29,31(52),32(53)-tetraen-48-yl]propyl]-46-methoxy-44-cyclohexyl] N-(2-morpholinoethyl)carbamate], the IC50 in assay [1] is at least 1000 nM; in assay [2] it was below 1 nM. The “mTORC1 selective @ 90 min” value with mTORC1 over mTORC2 was “Yes”.

For `CO[C@@H]1C[C@H](C[C@@H](C)[C@@H]2CC(=O)[C@H](C)/C=C(\C)[C@@H](O)[C@@H](OC)C(=O)[C@H](C)C[C@H](C)/C=C/C=C/C=C(\C)[C@H](OCC3COCCO3)C[C@@H]3CC[C@@H](C)[C@@](O)(O3)C(=O)C(=O)N3CCCC[C@H]3C(=O)O2)CC[C@H]1OC(F)F` (stereo partly drawn) [I-10, (24E,26E,28E,29E,32R,33S,34R,35R,37S,39S,41R,42S,44R,45R,55R)-42-[(1R)-2-[(1S,3R,4R)-4-(difluoromethoxy)-3-methoxy-cyclohexyl]-1-methyl-ethyl]-41-(1,4-dioxan-2-ylmethoxy)-44,55-dihydroxy-45-methoxy-32,33,34,35,46,47-hexamethyl-66,67-dioxa-56-azatricyclohexatriaconta-24,26,28(46),29(47)-tetraene-48,49,50,51,52-pentone], the IC50 in assay [1] was at least 1000 nM; in assay [2], 10 to 100 nM. Also, the “mTORC1 selective @ 90 min” value in the assay with mTORC1 over mTORC2 is given as “Yes”.

Regarding `COCCOCCO[C@@H]1C[C@@H]2CC[C@@H](C)[C@@](O)(O2)C(=O)C(=O)N2CCCC[C@H]2C(=O)O[C@H]([C@H](C)C[C@@H]2CC[C@@H](OP(C)(C)=O)[C@H](OC)C2)CC(=O)[C@H](C)/C=C(\C)[C@@H](OC)[C@@H](OC)C(=O)[C@H](C)C[C@H](C)/C=C/C=C/C=C/1C` [I-33, (25E,27E,29E,30E,36R,37S,38R,39R,41S,43S,45R,46S,47R,48R,57R)-46-[(1R)-2-[(1S,3R,4R)-4-dimethylphosphoryloxy-3-methoxy-cyclohexyl]-1-methyl-ethyl]-57-hydroxy-47,48-dimethoxy-45-[2-(2-methoxyethoxy)ethoxy]-36,37,38,39,49,50-hexamethyl-66,67-dioxa-58-azatricyclohexatriaconta-25,27,29(49),30(50)-tetraene-51,52,53,54,55-pentone], the 50% inhibitory concentration (IC50) in assay [1] is at least 1000 nM; in assay [2], 1 to 10 nM. For the same compound, in the assay with mTORC1 over mTORC2, the “mTORC1 selective @ 90 min” value is “Yes”.

For the compound `CO[C@@H]1C[C@H](C[C@@H](C)[C@@H]2CC(=O)[C@H](C)/C=C(\C)[C@@H](O)[C@@H](OC)C(=O)[C@H](C)C[C@H](C)/C=C/C=C/C=C(\C)C(OCC3COCCO3)C[C@@H]3CC[C@@H](C)[C@@](O)(O3)C(=O)C(=O)N3CCCC[C@H]3C(=O)O2)CC[C@H]1OC(=O)N(C)CCN1CCOCC1` (stereo partly drawn) [I-99, [(40S,42R,44R)-4-[(2R)-2-[(27E,29E,31E,32E,36R,37S,38R,39R,41S,43S,45S,46S,47R,48R,58R)-47,58-dihydroxy-45,48-dimethoxy-36,37,38,39,49,50-hexamethyl-51,52,53,54,55-pentaoxo-71,72-dioxa-60-azatricyclohexatriaconta-27,29,31(49),32(50)-tetraen-46-yl]propyl]-44-methoxy-42-cyclohexyl]N-methyl-N-(2-morpholinoethyl)carbamate], the IC50 is at least 1000 nM in assay [1] and 1 to 10 nM in assay [2]. Further, the “mTORC1 selective @ 90 min” value with mTORC1 over mTORC2 is on record as “Yes”.

As for `COCCO[C@@H]1CC[C@@H](C[C@@H](C)[C@@H]2CC(=O)[C@H](C)/C=C(\C)[C@@H](O)[C@@H](OC)C(=O)[C@H](C)C[C@H](C)/C=C/C=C/C=C(\C)C(OC[C@@H]3COCCO3)C[C@@H]3CC[C@@H](C)[C@@](O)(O3)C(=O)C(=O)N3CCCC[C@H]3C(=O)O2)C[C@H]1OC` (stereo partly drawn) [I-76, (1R,9S,12S,15R,16E,18R,19R,21R,23S,24E,26E,28E,32S,35R)-30-[[(2S)-1,4-dioxan-2-yl]methoxy]-1,18-dihydroxy-19-methoxy-12-[(1R)-2-[(1S,3R,4R)-3-methoxy-4-(2-methoxyethoxy)cyclohexyl]-1-methyl-ethyl]-15,17,21,23,29,35-hexamethyl-11,36-dioxa-4-azatricyclo[30.3.1.0^4,9]hexatriaconta-16,24,26,28-tetraene-2,3,10,14,20-pentone], the figures for the concentration for half-maximal inhibition (IC50) in assay [1] and in assay [2] were at least 1000 nM and below 1 nM, respectively. The “mTORC1 selective @ 90 min” value in the assay with mTORC1 over mTORC2 is “Yes”.
